As usually defined, the IC50 is the midpoint of a concentration-inhibition curve. The EC50 is the midpoint of the concentration-response curve.

Like-named read-outs stand apart in the source and are kept apart here.

The target of one assay is human KHK-A (Homo sapiens (Human), UniProt P50053). The assay is described as follows: KHK Biochemical Assay (IC50), ADP-Glo, KHK-A. Conditions: average of at least two separate assays. In short, it runs like this: (§1)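 ADP-Glo luminescence measured ADP made over a 4 h room-temperature reaction of ATP plus fructose, started after 30 min compound–enzyme pre-incubation. Buffer: 50 mM Hepes pH 7.4, 140 mM KCl, 5 mM MgCl2, 0.01% Triton-X. Enzyme was His-tagged, BL21 (DE3)-expressed, Ni-NTA-purified; compounds in 1:3 DMSO dilution series.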
Sequence of human KHK-A (P50053 other isoform, or with tags, fused parts or gaps): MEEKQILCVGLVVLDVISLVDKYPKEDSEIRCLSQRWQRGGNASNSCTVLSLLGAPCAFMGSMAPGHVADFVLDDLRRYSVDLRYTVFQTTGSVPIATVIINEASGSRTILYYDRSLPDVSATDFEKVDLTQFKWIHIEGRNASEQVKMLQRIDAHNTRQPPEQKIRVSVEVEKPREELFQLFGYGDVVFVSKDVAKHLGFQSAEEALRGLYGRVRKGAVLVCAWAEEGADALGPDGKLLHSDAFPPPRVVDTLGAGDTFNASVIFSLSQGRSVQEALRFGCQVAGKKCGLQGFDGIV
For orientation: In ADP-Glo the light output rises with the ADP produced.

Assay [1] concerns the target KHK-C expressed in NRK-52E cells (Homo sapiens (Human), UniProt P50053). As to the kind of experiment: KHK-C Cell-based Assay (EC50), NRK CTG, fructose-mediated ATP-depletion.
The next assay deals with HepG2 cells. As to the kind of experiment: F1P Cell-Based Assay (EC50), 13C6-fructose-1-phosphate in HepG2 cells (cell culture medium or 50% human plasma). Conditions: Homo sapiens.
For a further assay, the target named is human KHK-C (Homo sapiens (Human), UniProt P50053). The assay is described as follows: KHK Biochemical Assay (IC50), ADP-Glo, KHK-C. Conditions: average of at least two separate assays. Put shortly: as §1
Sequence of human KHK-C (P50053 whole entry): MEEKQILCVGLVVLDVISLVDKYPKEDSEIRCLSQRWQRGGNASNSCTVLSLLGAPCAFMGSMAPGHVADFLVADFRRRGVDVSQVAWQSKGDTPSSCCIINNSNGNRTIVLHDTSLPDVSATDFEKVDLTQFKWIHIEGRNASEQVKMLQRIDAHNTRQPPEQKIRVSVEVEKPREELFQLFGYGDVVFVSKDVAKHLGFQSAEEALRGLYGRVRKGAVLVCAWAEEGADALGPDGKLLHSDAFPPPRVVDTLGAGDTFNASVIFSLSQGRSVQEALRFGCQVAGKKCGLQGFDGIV
Setting [2] is: HepG2, HepG2 cells, 50% human plasma, read-out: F1P 50% HP EC50.
Setting [3] is: HepG2, read-out: F1P 10% FBS EC50, HepG2 cells, cell culture medium (10% FBS).

Sequence of KHK-C expressed in NRK-52E cells (P50053 whole entry): as above

For `C[C@H]1[C@H](O)CN1c1nc(-c2cc3c(c(S(N)(=O)=O)c2)OCC3)c2c(n1)C(F)(F)CC2` [Example 351, 5-(7,7-difluoro-2-((2S,3R)-3-hydroxy-2-methylazetidin-1-yl)-6,7-dihydro-5H-cyclopenta[d]pyrimidin-4-yl)-2,3-dihydrobenzofuran-7-sulfonamide], the results for the IC50 against human KHK-A (ADP-Glo) and on human KHK-C (ADP-Glo) were 6.4 nM and 4.1 nM, respectively. For the same compound, the 50% effective concentration (EC50) is 97.2 nM in assay [1], 42.9 nM in the assay on HepG2 cells (setting [2]) and 27.4 nM in the assay on HepG2 cells (setting [3]).
Regarding `C[C@H]1[C@H](F)CN1c1nc(-c2ccc(C3(N)COC3)cc2)c2c(n1)C(F)(F)CC2` [Example 468, 3-(4-(7,7-difluoro-2-((2S,3R)-3-fluoro-2-methylazetidin-1-yl)-6,7-dihydro-5H-cyclopenta[d]pyrimidin-4-yl)phenyl)oxetan-3-amine], the IC50 against human KHK-A was found to be 5.3 nM; on human KHK-C, 1.8 nM. Moreover, the EC50 was 4.3 nM in assay [1], 23.8 nM with HepG2 cells (setting [2]) and 7.6 nM with HepG2 cells (setting [3]).
The corresponding values for `C[C@@H]1N(c2nc(-c3ccc(C4(N)COC4)cc3)c3c(n2)C(F)(F)CC3)CC1(F)F` [Example 470, (S)-3-(4-(2-(3,3-difluoro-2-methylazetidin-1-yl)-7,7-difluoro-6,7-dihydro-5H-cyclopenta[d]pyrimidin-4-yl)phenyl)oxetan-3-amine] are 6.3 nM, 1.9 nM, 5 nM, 51 nM and 13.4 nM.
The corresponding values for `C[C@H]1[C@H](O)CN1c1nc(-c2ccc3c(c2)CC[C@]32NC(=O)N(C)C2=O)c2c(n1)C(F)(F)CC2` [Example 488, (58)-5′-[7,7-difluoro-2-[(2S,3R)-3-hydroxy-2-methyl-azetidin-1-yl]-5,6-dihydrocyclopenta[d]pyrimidin-4-yl]-3-methyl-spiro[imidazolidine-5,1′-indane]-2,4-dione] are 10.6 nM, 0.1 nM, 4.1 nM, 44.4 nM and 28.7 nM.
Regarding `C[C@H]1C[C@H](C)N1c1nc(-c2ccc(C3(N)COC3)cc2)c2c(n1)C(F)(F)CC2` [Example 504, 3-(4-(2-((2S,4S)-2,4-dimethylazetidin-1-yl)-7,7-difluoro-6,7-dihydro-5H-cyclopenta[d]pyrimidin-4-yl)phenyl)oxetan-3-amine], the results for the IC50 at human KHK-A and against human KHK-C were 10.1 nM and 2.3 nM, respectively. Moreover, the EC50 in assay [1] worked out at 11.5 nM; in the assay on HepG2 cells (setting [2]), 34.7 nM; in the assay on HepG2 cells (setting [3]), 9.9 nM.
Take `COc1ccc(-c2nc(N3C[C@@H](F)[C@@H]3C)nc3c2CCC3(F)F)cc1[S@@](C)(=N)=O` [Example 561, (S)-(5-(7,7-difluoro-2-((2S,3R)-3-fluoro-2-methylazetidin-1-yl)-6,7-dihydro-5H-cyclopenta[d]pyrimidin-4-yl)-2-methoxyphenyl)(imino)(methyl)-λ^6-sulfanone]: the IC50 worked out at 0.2 nM on human KHK-A and 1.1 nM on human KHK-C. Moreover, the EC50 in assay [1] turned out to be 8 nM; with HepG2 cells (setting [2]), 24.6 nM; in the assay on HepG2 cells (setting [3]), 3.5 nM.
The like results for `COc1ccc(-c2nc(N3C[C@H](F)[C@@H]3C)nc3c2CCC3(F)F)cc1[S@@](C)(=N)=O` [Example 562, (S)-(5-(7,7-difluoro-2-((2S,3S)-3-fluoro-2-methylazetidin-1-yl)-6,7-dihydro-5H-cyclopenta[d]pyrimidin-4-yl)-2-methoxyphenyl)(imino)(methyl)-λ^6-sulfanone] were, in that order, 0.3 nM, 1.4 nM, 5.8 nM, 3.6 nM and 1.1 nM.
On to `COc1ccc(-c2nc(N3CC(F)(F)[C@@H]3C)nc3c2CCC3(F)F)cc1[S@@](C)(=N)=O` [Example 563, (S)-(5-(2-((S)-3,3-difluoro-2-methylazetidin-1-yl)-7,7-difluoro-6,7-dihydro-5H-cyclopenta[d]pyrimidin-4-yl)-2-methoxyphenyl)(imino)(methyl)-λ^6-sulfanone], for which the IC50 against human KHK-A worked out at 0.2 nM; against human KHK-C it was 1.7 nM. Further, the EC50 was 5.1 nM in assay [1], 6.7 nM with HepG2 cells (setting [2]) and 0.6 nM in the assay on HepG2 cells (setting [3]).
The corresponding values for `C[C@H]1[C@H](O)CN1c1nc(-c2ccc(OC(F)(F)F)c(S(C)(=N)=O)c2)c2c(n1)C(F)(F)CC2` (stereo partly drawn) [Example 564, (5-(7,7-difluoro-2-((2S,3R)-3-hydroxy-2-methylazetidin-1-yl)-6,7-dihydro-5H-cyclopenta[d]pyrimidin-4-yl)-2-(trifluoromethoxy)phenyl)(imino)(methyl)-λ^6-sulfanone] are 11.6 nM, 24.4 nM, 98.1 nM, 142 nM and 38.5 nM.
The corresponding values for `C[C@H]1[C@H](O)CN1c1nc(-c2ccc3c(c2)OCC32NC(=O)OC2(C)C)c2c(n1)C(F)(F)CC2` (stereo partly drawn) [Example 565, 6-(7,7-difluoro-2-((2S,3R)-3-hydroxy-2-methylazetidin-1-yl)-6,7-dihydro-5H-cyclopenta[d]pyrimidin-4-yl)-5′,5′-dimethyl-2H-spiro[benzofuran-3,4′-oxazolidin]-2′-one] are 32.8 nM, 2.6 nM, 19.3 nM, 204 nM and 50.3 nM.
For the compound `C[C@H]1[C@H](O)CN1c1nc(-c2ccc3c(c2)CC[C@]32NC(=O)N(CCO)C2=O)c2c(n1)C(F)(F)CC2` [Example 686, (58)-5′-[7,7-difluoro-2-[(2S,3R)-3-hydroxy-2-methyl-azetidin-1-yl]-5,6-dihydrocyclopenta[d]pyrimidin-4-yl]-3-(2-hydroxyethyl)spiro[imidazolidine-5,1′-indane]-2,4-dione], the IC50 against human KHK-A turned out to be 16.7 nM; at human KHK-C, 0.1 nM. For the same compound, the EC50 in assay [1] stood at 6.4 nM; with HepG2 cells (setting [2]), 71 nM; with HepG2 cells (setting [3]), 67.8 nM.
As to `CCCN1C(=O)NC2(COc3cc(-c4nc(N5C[C@@H](O)[C@@H]5C)nc5c4CCC5(F)F)ccc32)C1=O` (stereo partly drawn) [Example 693, 6-[7,7-difluoro-2-[(2S,3R)-3-hydroxy-2-methyl-azetidin-1-yl]-5,6-dihydroeyelopenta[d]pyrimidin-4-yl]-3′-propyl-spiro[2H-benzofuran-3,5′-imidazolidine]-2′,4′-dione], the IC50 on human KHK-A turned out to be 47.2 nM; at human KHK-C, 0.2 nM. The EC50 worked out at 6.4 nM in assay [1], 141 nM with HepG2 cells (setting [2]) and 22.4 nM in the assay with HepG2 cells (setting [3]).
On to `C[C@H]1[C@H](O)CN1c1nc(-c2ccc3c(c2)OCC32NC(=O)N(C3COC3)C2=O)c2c(n1)C(F)(F)CC2` (stereo partly drawn) [Example 694, 6-[7,7-difluoro-2-[(2S,3R)-3-hydroxy-2-methyl-azetidin-1-yl]-5,6-dihydroeyelopenta[d]pyrimidin-4-yl]-3′-(oxetan-3-yl)spiro[2H-benzofuran-3,5′-imidazolidine]-2′,4′-dione], for which the IC50 was determined as 24.5 nM against human KHK-A and 0.4 nM on human KHK-C. In addition, the EC50 was 17.2 nM in assay [1], 109 nM with HepG2 cells (setting [2]) and 54.3 nM with HepG2 cells (setting [3]).
The corresponding values for `C[C@H]1[C@H](O)CN1c1nc(-c2ccc3c(c2)OCC32CN(C)C(=O)N2)c2c(n1)C(F)(F)CC2` (stereo partly drawn) [Example 695, 6-[7,7-difluoro-2-[(2S,3R)-3-hydroxy-2-methyl-azetidin-1-yl]-5,6-dihydroeyelopenta[d]pyrimidin-4-yl]-1′-methyl-spiro[2H-benzofuran-3,4′-imidazolidine]-2′-one] are 16.2 nM, 0.5 nM, 10.3 nM, 213 nM and 27.1 nM.
The like results for `C[C@H]1[C@H](O)CN1c1nc(-c2ccc3c(c2)OCC32NC(=O)N(CC(F)(F)F)C2=O)c2c(n1)C(F)(F)CC2` (stereo partly drawn) [Example 699, 6-[7,7-difluoro-2-[(2S,3R)-3-hydroxy-2-methyl-azetidin-1-yl]-5,6-dihydrocyclopenta[d]pyrimidin-4-yl]-3′-(2,2,2-trifluoroethyl)spiro[2H-benzofuran-3,5′-imidazolidine]-2′,4′-dione] were, in that order, 88.7 nM, 0.3 nM, 32.8 nM, 492 nM and 85.2 nM.
Regarding `C[C@H]1[C@H](O)CN1c1nc(-c2ccc3c(c2)OCC32CN(CCO)C(=O)N2)c2c(n1)C(F)(F)CC2` (stereo partly drawn) [Example 700, 6-[7,7-difluoro-2-[(2S,3R)-3-hydroxy-2-methyl-azetidin-1-yl]-5,6-dihydrocyclopenta[d]pyrimidin-4-yl]-1′-(2-hydroxyethyl)spiro[2H-benzofuran-3,4′-imidazolidine]-2′-one], the IC50 was found to be 16.1 nM at human KHK-A and 0.2 nM against human KHK-C. Besides, the values for the EC50 (in assay [1]; with HepG2 cells (setting [2]); in the assay with HepG2 cells (setting [3])) were 37.3 nM, 250 nM and 163 nM, respectively.
The like results for `COc1c(Cl)cc(-c2nc(N3C[C@@H](O)[C@@H]3C)nc3c2CCC3(F)F)cc1S(C)(=N)=O` (stereo partly drawn) [Example 717, (3-chloro-5-(7,7-difluoro-2-((2S,3R)-3-hydroxy-2-methylazetidin-1-yl)-6,7-dihydro-5H-cyclopenta[d]pyrimidin-4-yl)-2-methoxyphenyl)(imino)(methyl)-λ^6-sulfanone] were, in that order, greater than 100 nM, greater than 100 nM, greater than 500 nM, greater than 500 nM and greater than 500 nM.

The record behind these values is patent US12410160B2 (Gilead Sciences, Inc., priority 2021, dated 2025).
